Assay results as given in patent publication US10688099B2, “Methods for modulating the amount of RNA transcripts” (PTC Therapeutics, Inc., priority 2013, dated 2020).

Tested on: RNA isoforms in PNN 1-46 SMA type I patient-derived fibroblasts
Assay: RNA Abundance Modulation (RNA isoform abundance, iFPM, HiSeq RNA sequencing)
Type: cell-based, human
Conditions: 24 hrs, PNN 1-46 fibroblasts
Protocol: Cells from a cell line of interest are cultured in conditions sufficient to yield the number of cells capable of generating enough RNA for subsequent sequencing steps. Cells from the tested cell line are contacted with a compound described herein.
To culture said cells, they are seeded, at appropriate concentrations in a volume of media in a cell culture container and incubated for 4, 5, 6, 7, 8, 9, 10, or more hours. A concentrated solution of compound in a vehicle (e.g., DMSO) is then added in sufficient volume to result in the intended final concentration of the compound, for example 100 nM, 500 nM, 1 μM, 5 μM, 10 μM, 15 μM, 20 μM, or more. The cells may also be treated with vehicle alone, as a control. A number of replicates of each concentration or control may be made (e.g., 2 replicates). The cells are then incubated at a constant temperature appropriate for cell culture of the particular cell line (e.g., 37° C.) for 6, 12, 18, 24, 48, or more hours. After incubation, the growth medium is removed and the cells are washed with the appropriate buffer (e.g., PBS). Cells are then removed from adherence to the cell culture container by treatment with a solution containing trypsin, and the trypsin subsequently quenched with the appropriate volume of buffer (e.g., DMEM-FBS). The cells are then pelleted with gentle centrifugation (e.g., ≤90×g centrifugal force) and resuspended in a buffer to lyse the cells for extraction of RNA. The cell lysates may then be frozen (e.g., at −80° C.) or, alternately, may immediately be used in a procedure to purify the RNA (e.g. by use of the RNEASY PLUS® minikit). The RNA from cell lysates is eluted in the appropriate volume of buffer (e.g., RNEASE-FREE H2O®). The resulting purified RNA may then be sequenced (e.g., using RNASeq) or analyzed using a human exon array (e.g., by GENECHIP® human exon array) to determine changes in the RNA levels in those cells treated with compound compared to those cells treated only with DMSO. The purified RNA may also be quantified by other methods known in the art.
Using the RNA data obtained from sequencing, exon array, or other methods, a statistical analysis can reveal changes in the RNA levels of compound-treated compared with control. For example, t-test p-values may be calculated for the data obtained through sequencing and exon array methods in order to compare compound-treated cells to those treated with the DMSO control. […] Analysis of the sequencing and exon array data may then also yield predictions about the cause of the aberrant amount of an RNA transcript in the cells (e.g., perturbation of RNA splicing, RNA transcription, or RNA stability). These predictions may be further confirmed by methods known in the art. For example, RT-PCR and RT-qPCR may be used to confirm the change in amount of RNA transcripts for one or more particular transcripts of interest.
Following the methods described above in Example 1, PNN 1-46 SMA type I patient-derived fibroblasts were treated with 300 nM or 3 μM Compounds 774 and 808 in 0.5% DMSO.
700,000 cells were seeded in 10 mL of medium (DMEM plus 10% FBS) in a T-75 flask. Cells were allowed to attach for at least 4 hrs, after which 50 μL of a 200× compound solution (100% DMSO) was added to each well, and the plate was incubated at 37° C. for 24 hrs.
At the end of the incubation period, the supernatant was removed and the cells where washed with PBS. TrypLE (Invitrogen) express solution was added (e.g. 1.5 mL per one T75 flask). The flasks were incubated for 3 to 5 min at 37° C. The trypsin was then quenched, e.g., by adding 10 mL DMEM-FBS.
Next, the cells were pelleted using gentle centrifugation without exceeding 90×g centrifugal force. The supernatant was removed and the cell pellet was re-suspended in 600 μL RLT buffer (the RLT buffer was supplemented with beta-mercaptoethanol according to the RNeasy protocol manual) by pipetting up and down until the pellet was completely dissolved […]

## Cc1cn2cc(-c3cc(=O)n4cc(N5CCN(C)CC5)ccc4n3)cc(C)c2n1 [Compound 808]
0.3 μM
  RNA abundance modulation (effect on isoform fold increase): modulates RNA abundance
3 μM
  RNA abundance modulation (effect on isoform fold increase): modulates RNA abundance
